Experimental findings from PMC4053376, “Characterization of the Xiamenmycin Biosynthesis Gene Cluster in Streptomyces xiamenensis 318” (PLoS ONE, 2014) are described below.

Experiment [1] has as its target T1, XimB (Streptomyces xiamenensis, UniProt U5PZQ3).
T1 construct: full-length 313 aa; N-terminal His tag, pET28a, E. coli BL21(DE3) membrane fraction; twelve predicted transmembrane helices
T1 sequence (U5PZQ3 1-313): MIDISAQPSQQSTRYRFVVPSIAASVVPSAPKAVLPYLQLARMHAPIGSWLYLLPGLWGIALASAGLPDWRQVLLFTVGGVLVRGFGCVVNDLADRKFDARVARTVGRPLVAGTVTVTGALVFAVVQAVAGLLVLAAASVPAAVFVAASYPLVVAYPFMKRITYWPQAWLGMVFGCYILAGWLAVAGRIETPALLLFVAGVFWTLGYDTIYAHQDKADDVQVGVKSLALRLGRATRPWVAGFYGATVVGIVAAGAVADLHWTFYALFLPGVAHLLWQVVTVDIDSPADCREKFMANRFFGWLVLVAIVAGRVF
Description: membrane fraction, product […] by UPLC-Q-TOF-MS. Format: biochemical. As to conditions: 0.3 mM GPP, 0.5 mM 4HB, 5 mM MgSO4, 50 mM Tris-HCl pH 7.5, 30 °C.

Experiment [2] has as its target T2, XimC (Streptomyces xiamenensis, UniProt U5Q2Q4).
T2 construct: full-length 196 aa; N-terminal His6 tag, pET28a, E. coli BL21(DE3), Ni-NTA purified
The experiment in a line: product 4HB by GC-MS. In kind it is biochemical. As to conditions: 50 mM Tris-HCl pH 7.5, 30 °C, 30 min.

T2 sequence (U5Q2Q4 entry or part of it): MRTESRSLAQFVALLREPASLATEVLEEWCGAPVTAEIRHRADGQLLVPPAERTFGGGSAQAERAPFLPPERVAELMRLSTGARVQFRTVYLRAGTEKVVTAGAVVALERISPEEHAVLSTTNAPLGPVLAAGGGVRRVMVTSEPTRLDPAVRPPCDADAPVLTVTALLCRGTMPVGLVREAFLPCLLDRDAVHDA

On to `O=C(O)c1ccc(O)cc1` [4-hydroxybenzoic acid], for which the “membrane fraction, product 2 by UPLC-Q-TOF-MS” value in experiment [1] is “membrane fraction containing XimB was incubated with 4HB and GPP”.
Take `C=C(O[C@@H]1C=C(C(=O)O)C=C[C@H]1O)C(=O)O` [chorismate]: the “product 4HB by GC-MS” value in experiment [2] is “incubated with chorismate, the formation of 4HB was observed and confirmed by GC-MS”.
For the compound `CC(C)=CCC/C(C)=C/COP(=O)(O)OP(=O)(O)O` [geranyl diphosphate], the “membrane fraction, product 2 by UPLC-Q-TOF-MS” value in experiment [1] is “membrane fraction containing XimB was incubated with 4HB and GPP”.
